In this assay the target is 5-hydroxytryptamine receptor 2A (Homo sapiens, UniProt P28223). Nature of the assay: Agonist activity at human 5-HT2A receptor assessed as activation of calcium mobilization incubated for 2 mins by Calcium-6 dye based FLIPR assay. The assay is classed as functional. Background: Calcium flux is commonly read through the fluorescence of an indicator in the cells.
Sequence of 5-hydroxytryptamine receptor 2A (P28223 whole entry): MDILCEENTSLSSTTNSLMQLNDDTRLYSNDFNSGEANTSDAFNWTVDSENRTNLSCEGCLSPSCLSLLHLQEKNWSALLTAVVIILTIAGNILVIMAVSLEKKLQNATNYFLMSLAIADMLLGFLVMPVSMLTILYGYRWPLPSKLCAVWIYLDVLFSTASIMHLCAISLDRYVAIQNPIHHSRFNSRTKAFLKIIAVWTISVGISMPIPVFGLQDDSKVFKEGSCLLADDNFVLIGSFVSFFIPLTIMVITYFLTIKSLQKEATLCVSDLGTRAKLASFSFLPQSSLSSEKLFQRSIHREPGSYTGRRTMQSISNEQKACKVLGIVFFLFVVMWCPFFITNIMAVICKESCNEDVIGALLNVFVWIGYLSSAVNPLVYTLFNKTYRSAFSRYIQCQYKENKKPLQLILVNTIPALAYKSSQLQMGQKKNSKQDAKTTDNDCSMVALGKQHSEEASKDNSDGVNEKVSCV

One may read the EC50 as the concentration that produces a half-maximal response. With `[2H]C1([2H])CC(c2c[nH]c3cccc(O)c23)C([2H])([2H])N1` (stereo not given), the concentration giving a half-maximal response (EC50) is more than 10 µM.
Consider `[2H]C([2H])N1CCC(c2c[nH]c3cccc(O)c23)C1` (stereo not given), for which the EC50 was less than 1 µM.
As to `[2H]C1([2H])CC(c2c[nH]c3cccc(OCc4ccccc4)c23)C([2H])([2H])N1C` (stereo not given), the concentration for a half-maximal effect (EC50) is more than 10 µM.
`[2H]C1([2H])CC(c2c[nH]c3cccc(OCc4ccccc4)c23)C([2H])([2H])N1` (stereo not given): the EC50 was less than 1 µM.
In the case of `[2H]C1([2H])CC(c2c[nH]c3cccc(O)c23)C([2H])([2H])N1C` (stereo not given) it was less than 1 µM.
